Source: ChEMBL document CHEMBL3774368, “1,2,4-Triazolyl octahydropyrrolo[2,3-b]pyrroles: A new series of potent and selective dopamine D3 receptor antagonists” (Bioorg Med Chem, 2016)
Calls of active or inactive are those of the source. No cut-off for these calls is given here.

Legend:
[1] = Clearance in portal vein cannulated Sprague-Dawley rat blood; conditions: whole blood
Cytochrome P450 2D6 = Cytochrome P450 2D6 (Homo sapiens, UniProt P10635); experiment: Inhibition of recombinant human CYP2D6 expressed in baculosomes preincubated for 10 mins followed by cofactor addition measured every minute for 10 mins using 4-methylaminomethyl-7-methoxycoumarin as substrate by CYPEX assay
Cytochrome P450 3A4 [2] = target: T1, Cytochrome P450 3A4 (Homo sapiens, UniProt P08684); experiment: Inhibition of recombinant human CYP3A4 expressed in baculosomes preincubated for 10 mins followed by cofactor addition measured every minute for 10 mins using 7-benzyloxyquinoline as substrate by CYPEX assay
Cytochrome P450 2C9 = Cytochrome P450 2C9 (Homo sapiens, UniProt P11712); experiment: Inhibition of recombinant human CYP2C9 expressed in baculosomes preincubated for 10 mins followed by cofactor addition measured every minute for 10 mins using 7-methoxy-4-trifluoromethylcoumarin-3-acetic acid as substrate by CYPEX assay
[3] = Half life in portal vein cannulated Sprague-Dawley rat model; conditions: in vivo
Cytochrome P450 3A4 [4] = target: T1, Cytochrome P450 3A4; experiment: Inhibition of recombinant human CYP3A4 expressed in baculosomes preincubated for 10 mins followed by cofactor addition measured every minute for 10 mins using diethoxyflourescein as substrate by CYPEX assay
in vitro [5] = conditions: human, liver microsomes, CLH
D(2) dopamine receptor = D(2) dopamine receptor (Homo sapiens, UniProt P14416); experiment: Displacement of [3H]-spiperone from human dopamine D2 receptor expressed in CHO-K1 cell membranes after 120 mins by liquid scintillation counter method
[6] = Fraction absorbed in portal vein cannulated Sprague-Dawley rat model; conditions: in vivo
[7] = Volume of distribution at steady state in portal vein cannulated Sprague-Dawley rat model; conditions: in vivo
Cytochrome P450 2C19 = Cytochrome P450 2C19 (Homo sapiens, UniProt P33261); experiment: Inhibition of recombinant human CYP2C19 expressed in baculosomes preincubated for 10 mins followed by cofactor addition measured every minute for 10 mins using 3-butyryl-7-methoxycoumarin as substrate by CYPEX assay
[8] = Fraction unbound in Sprague-Dawley rat blood
[9] = Fraction unbound in Sprague-Dawley rat brain
[10] = Permeability across apical to basolateral side in human Caco2 cells
Cytochrome P450 1A2 = target: T2, Cytochrome P450 1A2 (Homo sapiens, UniProt P05177); experiment: Inhibition of recombinant human CYP1A2 expressed in baculosomes preincubated for 10 mins followed by cofactor addition measured every minute for 10 mins using ethoxyresorufin as substrate by CYPEX assay
T2 sequence (P05177 whole entry): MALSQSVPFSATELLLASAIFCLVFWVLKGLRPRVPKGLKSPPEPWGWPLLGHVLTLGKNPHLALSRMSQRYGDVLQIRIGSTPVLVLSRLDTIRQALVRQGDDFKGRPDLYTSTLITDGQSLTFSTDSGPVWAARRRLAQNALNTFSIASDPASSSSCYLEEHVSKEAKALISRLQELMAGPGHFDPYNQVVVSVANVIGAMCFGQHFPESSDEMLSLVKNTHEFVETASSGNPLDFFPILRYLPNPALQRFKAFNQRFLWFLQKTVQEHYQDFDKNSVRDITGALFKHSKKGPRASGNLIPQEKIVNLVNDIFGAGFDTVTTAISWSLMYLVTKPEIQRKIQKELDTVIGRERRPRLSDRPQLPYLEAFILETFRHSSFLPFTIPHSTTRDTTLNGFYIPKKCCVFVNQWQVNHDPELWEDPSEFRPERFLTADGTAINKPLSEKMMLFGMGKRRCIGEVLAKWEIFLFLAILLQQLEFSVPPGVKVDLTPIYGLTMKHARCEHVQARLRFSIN

in vitro [11] = conditions: rat, liver microsomes, CLH
[12] = target: Voltage-gated inwardly rectifying potassium channel KCNH2 (Homo sapiens, UniProt Q12809); experiment: Inhibition of human ERG tail current expressed in HEK293 cells after 5 mins by patch clamp assay
[13] = Solubility of compound; type: physicochemical
D(3) dopamine receptor = D(3) dopamine receptor (Homo sapiens, UniProt P35462); experiment: Displacement of [3H]-spiperone from human dopamine D3 receptor expressed in CHO-K1 cell membranes after 90 mins by liquid scintillation counter method
[14] = target: Muscarinic acetylcholine receptor M3 (Homo sapiens, UniProt P20309); experiment: Antagonist activity at recombinant human muscarinic M3 receptor expressed in CHO-K1 cells assessed as inhibition of acetylcholine induced calcium mobilization preincubated for 10 mins followed by acetylcholine addition measured after 1 hr by fluo-4 AM dye-based FLIPR assay; type: functional, cell-based
[15] = target: T3, Muscarinic acetylcholine receptor M1 (Homo sapiens, UniProt P11229); experiment: Antagonist activity at recombinant human muscarinic M1 receptor expressed in CHO-K1 cells assessed as inhibition of acetylcholine induced calcium mobilization preincubated for 10 mins followed by acetylcholine addition measured after 1 hr by fluo-4 AM dye-based FLIPR assay; type: functional, cell-based
T3 sequence (P11229 whole entry): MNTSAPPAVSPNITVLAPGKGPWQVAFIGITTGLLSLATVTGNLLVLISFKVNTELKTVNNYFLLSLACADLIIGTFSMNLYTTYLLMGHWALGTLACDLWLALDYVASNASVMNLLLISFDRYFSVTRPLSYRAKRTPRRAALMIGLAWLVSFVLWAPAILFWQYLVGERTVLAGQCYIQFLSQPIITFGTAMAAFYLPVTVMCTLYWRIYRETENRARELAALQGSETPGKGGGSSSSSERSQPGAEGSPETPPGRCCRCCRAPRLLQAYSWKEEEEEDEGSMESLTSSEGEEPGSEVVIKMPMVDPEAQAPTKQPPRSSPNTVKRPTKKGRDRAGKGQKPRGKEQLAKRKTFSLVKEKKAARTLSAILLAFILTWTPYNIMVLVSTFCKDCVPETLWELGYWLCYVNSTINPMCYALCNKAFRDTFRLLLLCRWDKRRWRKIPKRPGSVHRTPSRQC

[16] = target: D(1A) dopamine receptor (Homo sapiens) (UniProt P21728); experiment: Binding affinity to dopamine D1 receptor (unknown origin)
[17] = target: T4, D(4) dopamine receptor (Homo sapiens) (UniProt P21917); experiment: Binding affinity to dopamine D4 receptor (unknown origin)
T4 sequence (whole entry): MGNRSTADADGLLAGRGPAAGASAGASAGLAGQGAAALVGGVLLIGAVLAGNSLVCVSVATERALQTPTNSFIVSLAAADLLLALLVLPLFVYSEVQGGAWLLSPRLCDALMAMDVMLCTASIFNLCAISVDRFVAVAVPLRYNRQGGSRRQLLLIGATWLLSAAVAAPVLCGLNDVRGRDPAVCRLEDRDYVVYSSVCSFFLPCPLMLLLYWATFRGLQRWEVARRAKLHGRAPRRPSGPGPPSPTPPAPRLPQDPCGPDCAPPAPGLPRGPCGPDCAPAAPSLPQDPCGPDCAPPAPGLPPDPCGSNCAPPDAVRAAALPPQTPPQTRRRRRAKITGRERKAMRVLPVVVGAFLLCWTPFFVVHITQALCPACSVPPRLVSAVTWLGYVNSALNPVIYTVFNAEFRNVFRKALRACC

Homo sapiens = organism: Homo sapiens; experiment: Selectivity ratio of IC50 for human ERG to Ki for human dopamine D3 receptor

Sequence of Cytochrome P450 2D6 (P10635 whole entry): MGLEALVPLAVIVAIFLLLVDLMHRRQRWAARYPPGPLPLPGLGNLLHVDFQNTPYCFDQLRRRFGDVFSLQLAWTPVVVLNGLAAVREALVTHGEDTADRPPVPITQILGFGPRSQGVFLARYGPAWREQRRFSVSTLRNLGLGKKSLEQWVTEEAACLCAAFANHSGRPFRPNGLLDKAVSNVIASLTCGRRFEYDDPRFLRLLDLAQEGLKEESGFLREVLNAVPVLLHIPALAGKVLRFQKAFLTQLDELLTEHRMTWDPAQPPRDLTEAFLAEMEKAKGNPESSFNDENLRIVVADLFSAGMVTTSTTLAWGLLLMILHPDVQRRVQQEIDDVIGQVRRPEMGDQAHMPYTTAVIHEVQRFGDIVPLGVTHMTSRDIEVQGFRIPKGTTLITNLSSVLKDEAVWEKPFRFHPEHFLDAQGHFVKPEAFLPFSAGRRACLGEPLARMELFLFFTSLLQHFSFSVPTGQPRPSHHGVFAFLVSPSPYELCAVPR
Sequence of Cytochrome P450 2C9 (P11712 whole entry): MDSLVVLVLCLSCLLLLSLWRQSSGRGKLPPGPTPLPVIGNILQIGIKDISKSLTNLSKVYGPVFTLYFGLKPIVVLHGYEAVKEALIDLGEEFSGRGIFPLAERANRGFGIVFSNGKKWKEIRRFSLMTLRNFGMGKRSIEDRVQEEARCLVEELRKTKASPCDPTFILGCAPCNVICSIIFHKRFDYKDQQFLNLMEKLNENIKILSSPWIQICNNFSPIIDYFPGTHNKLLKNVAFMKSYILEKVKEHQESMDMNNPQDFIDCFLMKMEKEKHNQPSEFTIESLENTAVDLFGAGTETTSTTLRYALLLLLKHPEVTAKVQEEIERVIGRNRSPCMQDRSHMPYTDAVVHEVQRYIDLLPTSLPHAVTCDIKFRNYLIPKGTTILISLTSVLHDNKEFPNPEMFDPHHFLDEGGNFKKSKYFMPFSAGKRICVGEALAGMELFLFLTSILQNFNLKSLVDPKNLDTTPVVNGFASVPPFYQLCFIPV
T1 sequence (P08684 whole entry): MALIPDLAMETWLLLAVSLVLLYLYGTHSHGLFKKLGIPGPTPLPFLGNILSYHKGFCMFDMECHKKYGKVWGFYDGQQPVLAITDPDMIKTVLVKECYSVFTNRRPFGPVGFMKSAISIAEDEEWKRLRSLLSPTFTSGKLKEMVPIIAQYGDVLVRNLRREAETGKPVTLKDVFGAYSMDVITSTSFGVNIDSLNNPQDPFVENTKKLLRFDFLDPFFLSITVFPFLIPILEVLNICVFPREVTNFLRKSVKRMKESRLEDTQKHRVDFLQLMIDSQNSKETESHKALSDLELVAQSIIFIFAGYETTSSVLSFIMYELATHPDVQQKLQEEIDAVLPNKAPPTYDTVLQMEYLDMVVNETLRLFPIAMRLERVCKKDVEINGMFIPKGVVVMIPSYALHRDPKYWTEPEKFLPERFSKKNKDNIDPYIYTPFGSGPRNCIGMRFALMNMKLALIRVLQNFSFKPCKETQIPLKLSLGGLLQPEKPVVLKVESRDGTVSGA
Sequence of Cytochrome P450 2C19 (P33261 whole entry): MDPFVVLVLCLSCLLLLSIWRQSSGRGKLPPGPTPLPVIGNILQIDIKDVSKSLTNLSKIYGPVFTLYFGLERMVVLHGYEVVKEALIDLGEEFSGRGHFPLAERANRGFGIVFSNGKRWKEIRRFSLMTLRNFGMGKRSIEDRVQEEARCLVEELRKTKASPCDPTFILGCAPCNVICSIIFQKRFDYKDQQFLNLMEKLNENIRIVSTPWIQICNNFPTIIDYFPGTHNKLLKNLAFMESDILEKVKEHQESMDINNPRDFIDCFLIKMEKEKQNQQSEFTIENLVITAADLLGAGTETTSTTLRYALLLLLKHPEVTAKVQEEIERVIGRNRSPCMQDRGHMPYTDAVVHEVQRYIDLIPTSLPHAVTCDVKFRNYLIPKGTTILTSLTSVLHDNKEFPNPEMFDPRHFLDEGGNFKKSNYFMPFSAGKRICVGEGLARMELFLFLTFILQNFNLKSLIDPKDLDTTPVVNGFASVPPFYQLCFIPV
Sequence of D(3) dopamine receptor (P35462 whole entry): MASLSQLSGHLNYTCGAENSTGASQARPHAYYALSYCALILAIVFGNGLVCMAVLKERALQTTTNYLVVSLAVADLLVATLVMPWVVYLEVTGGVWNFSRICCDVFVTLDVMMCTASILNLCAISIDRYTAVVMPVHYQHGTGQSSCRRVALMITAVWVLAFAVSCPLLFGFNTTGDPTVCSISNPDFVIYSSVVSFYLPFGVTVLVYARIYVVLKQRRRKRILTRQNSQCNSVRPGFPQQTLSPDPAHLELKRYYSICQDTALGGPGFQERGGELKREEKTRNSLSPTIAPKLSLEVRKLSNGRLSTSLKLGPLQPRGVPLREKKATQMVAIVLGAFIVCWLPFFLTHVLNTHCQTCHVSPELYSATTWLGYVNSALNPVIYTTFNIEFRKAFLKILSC
Sequence of D(2) dopamine receptor (P14416 whole entry): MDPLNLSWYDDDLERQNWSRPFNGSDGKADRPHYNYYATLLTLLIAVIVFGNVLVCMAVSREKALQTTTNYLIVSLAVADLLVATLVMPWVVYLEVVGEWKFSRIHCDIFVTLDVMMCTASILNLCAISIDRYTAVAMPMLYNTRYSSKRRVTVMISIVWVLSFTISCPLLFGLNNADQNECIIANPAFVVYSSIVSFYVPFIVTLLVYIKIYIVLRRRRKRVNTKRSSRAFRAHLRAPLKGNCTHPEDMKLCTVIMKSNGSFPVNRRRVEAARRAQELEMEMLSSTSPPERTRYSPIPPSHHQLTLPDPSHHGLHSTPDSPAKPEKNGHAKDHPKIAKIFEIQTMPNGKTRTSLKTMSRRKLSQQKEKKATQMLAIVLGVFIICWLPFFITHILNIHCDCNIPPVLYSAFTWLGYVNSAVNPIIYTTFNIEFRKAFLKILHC
Sequence of D(1A) dopamine receptor (Homo sapiens) (P21728 whole entry): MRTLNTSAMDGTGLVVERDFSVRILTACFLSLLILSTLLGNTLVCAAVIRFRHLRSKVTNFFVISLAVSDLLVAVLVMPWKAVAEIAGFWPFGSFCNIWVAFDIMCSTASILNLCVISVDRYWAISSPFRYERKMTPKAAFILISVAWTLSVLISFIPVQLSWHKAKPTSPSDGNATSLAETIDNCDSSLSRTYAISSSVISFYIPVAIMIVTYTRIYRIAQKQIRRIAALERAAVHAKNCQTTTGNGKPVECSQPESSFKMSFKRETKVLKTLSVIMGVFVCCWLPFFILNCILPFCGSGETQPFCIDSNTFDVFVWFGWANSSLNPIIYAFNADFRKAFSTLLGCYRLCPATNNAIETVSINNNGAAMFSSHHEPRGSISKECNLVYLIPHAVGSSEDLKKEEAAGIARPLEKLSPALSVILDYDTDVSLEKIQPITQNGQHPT
Sequence of Voltage-gated inwardly rectifying potassium channel KCNH2 (Q12809 whole entry): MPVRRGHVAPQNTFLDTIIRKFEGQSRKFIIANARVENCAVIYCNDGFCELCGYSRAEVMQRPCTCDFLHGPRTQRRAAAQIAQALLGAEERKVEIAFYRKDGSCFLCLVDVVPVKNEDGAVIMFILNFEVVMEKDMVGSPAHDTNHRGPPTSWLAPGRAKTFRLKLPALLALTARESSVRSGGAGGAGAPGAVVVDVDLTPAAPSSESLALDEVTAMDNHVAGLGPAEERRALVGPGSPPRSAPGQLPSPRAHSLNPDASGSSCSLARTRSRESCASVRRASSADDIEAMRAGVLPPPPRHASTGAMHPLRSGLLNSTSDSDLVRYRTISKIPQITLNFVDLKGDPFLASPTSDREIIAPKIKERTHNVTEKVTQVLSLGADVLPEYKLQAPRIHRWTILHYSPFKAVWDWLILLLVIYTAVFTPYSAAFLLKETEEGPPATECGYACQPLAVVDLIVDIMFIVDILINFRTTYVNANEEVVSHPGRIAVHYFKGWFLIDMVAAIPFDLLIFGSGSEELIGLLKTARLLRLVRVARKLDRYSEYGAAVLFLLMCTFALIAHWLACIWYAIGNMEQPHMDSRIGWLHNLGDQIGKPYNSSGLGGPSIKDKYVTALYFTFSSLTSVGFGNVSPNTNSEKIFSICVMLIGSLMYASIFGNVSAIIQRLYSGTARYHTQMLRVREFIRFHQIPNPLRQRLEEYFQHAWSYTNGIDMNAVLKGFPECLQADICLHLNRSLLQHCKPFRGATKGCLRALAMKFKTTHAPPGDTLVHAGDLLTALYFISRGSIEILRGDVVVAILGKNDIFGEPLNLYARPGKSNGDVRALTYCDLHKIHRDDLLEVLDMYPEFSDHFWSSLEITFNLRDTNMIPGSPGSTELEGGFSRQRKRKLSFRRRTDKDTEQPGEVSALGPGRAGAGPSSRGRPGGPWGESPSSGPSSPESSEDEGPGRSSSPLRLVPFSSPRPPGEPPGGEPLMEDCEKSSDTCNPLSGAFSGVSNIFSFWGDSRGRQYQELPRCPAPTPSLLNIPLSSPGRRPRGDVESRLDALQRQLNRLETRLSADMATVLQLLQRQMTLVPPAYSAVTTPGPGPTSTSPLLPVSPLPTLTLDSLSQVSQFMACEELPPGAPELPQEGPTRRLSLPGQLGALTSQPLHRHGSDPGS
Sequence of Muscarinic acetylcholine receptor M3 (P20309 whole entry): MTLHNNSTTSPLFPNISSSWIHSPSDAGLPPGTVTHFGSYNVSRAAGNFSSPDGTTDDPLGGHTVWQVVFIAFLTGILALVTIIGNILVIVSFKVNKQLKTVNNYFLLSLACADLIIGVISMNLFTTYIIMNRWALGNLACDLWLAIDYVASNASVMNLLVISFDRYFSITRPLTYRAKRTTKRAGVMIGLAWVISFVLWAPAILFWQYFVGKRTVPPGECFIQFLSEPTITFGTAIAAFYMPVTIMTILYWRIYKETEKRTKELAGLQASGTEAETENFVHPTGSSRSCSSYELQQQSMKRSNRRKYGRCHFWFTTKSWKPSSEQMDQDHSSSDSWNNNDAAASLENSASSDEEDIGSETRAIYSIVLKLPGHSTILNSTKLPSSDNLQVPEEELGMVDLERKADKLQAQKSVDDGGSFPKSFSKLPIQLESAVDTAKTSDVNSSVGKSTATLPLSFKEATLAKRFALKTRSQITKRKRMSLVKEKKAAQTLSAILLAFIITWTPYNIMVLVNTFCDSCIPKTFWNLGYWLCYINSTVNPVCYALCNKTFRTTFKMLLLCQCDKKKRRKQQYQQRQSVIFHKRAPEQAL

| SMILES | IC50 (Cytochrome P450 2D6) | IC50 (Cytochrome P450 3A4 [2]) | IC50 (Cytochrome P450 2C9) | IC50 (Cytochrome P450 3A4 [4]) | microsomal CLint at 0.5 µM (in vitro [5]) | Ki (D(2) dopamine receptor) | IC50 (Cytochrome P450 2C19) | IC50 (Cytochrome P450 1A2) | microsomal CLint at 0.5 µM (in vitro [11]) | Ki (D(3) dopamine receptor) | other results |
| --- | --- | --- | --- | --- | --- | --- | --- | --- | --- | --- | --- |
| Cc1ncoc1-c1nnc(SCCCN2CC3CCN(c4ccc(F)cc4)C3C2)n1C (stereo in doubt; 9a) | > 5000 nM | > 5000 nM | > 5000 nM | > 5000 nM | 27 µL/min/mg | 126 nM | > 5000 nM | > 5000 nM | 136 µL/min/mg |  | clearance [1]: 53 mL/min/kg; half-life [3]: 18 min; Fa [6]: 22%; Vd [7]: 1.2 L/kg; fraction unbound [8]: 0.14; fraction unbound [9]: 0.095; Papp A→B ([10]; Caco-2, permeability): 17.5 ×10⁻⁶ cm/s |
| Cc1ncoc1-c1nnc(SCCCN2CC3CCN(c4cccc(C#N)c4)C3C2)n1C (stereo in doubt; 12a) |  |  |  |  |  | 31.6 nM |  |  |  | 0.631 nM | IC50 [12]: < 100 nM; solubility [13]: > 2200 µg/mL |
| Cc1ncoc1-c1nnc(SCCCN2CC3CCN(c4cccc(C#N)c4)C3C2)n1C (stereo in doubt; 12b) |  |  |  |  |  | 631 nM |  |  |  | 6.31 nM | IC50 [12]: 794 nM |
| Cn1c(SCCCN2CC3CCN(c4ccc(C(F)(F)F)cc4)C3C2)nnc1-c1cnccn1 (stereo in doubt; 17b) | > 2000 nM | > 2000 nM | > 2000 nM | > 2000 nM | > 700 µL/min/mg | 158 nM | > 2000 nM | > 2000 nM | > 700 µL/min/mg |  |  |
| CC(C)Oc1ccccc1N1CCC2CN(CCCSc3nnc(-c4cnccn4)n3C)CC21 (stereo in doubt; 35a) |  |  |  |  |  | 5010 nM |  |  |  | 63.1 nM |  |
| CC(C)Oc1ccccc1N1CCC2CN(CCCSc3nnc(-c4cnccn4)n3C)CC21 (stereo in doubt; 35b) | > 1000 nM | > 1000 nM | > 1000 nM | > 1000 nM | > 750 µL/min/mg | 251 nM | > 1000 nM | > 1000 nM | > 750 µL/min/mg | 7.94 nM | fraction unbound [8]: 0.024; fraction unbound [9]: 0.13 |
| Cn1c(SCCCN2CC3CCN(c4ccc(F)cc4F)C3C2)nnc1-c1cnccn1 (stereo in doubt; 36a) |  |  |  |  |  | 1000 nM |  |  |  | 10 nM |  |
| Cn1c(SCCCN2CC3CCN(c4ccc(F)cc4F)C3C2)nnc1-c1cnccn1 (stereo in doubt; 36b) | > 1000 nM | > 1000 nM | > 1000 nM | > 1000 nM | > 650 µL/min/mg | 316 nM | > 1000 nM | > 1000 nM | > 650 µL/min/mg | 3.98 nM |  |
| Cn1c(SCCCN2CC3CCN(c4ccccc4C(F)(F)F)C3C2)nnc1-c1cccnc1 (stereo in doubt; 52a) [listing 1 of 2 here] | > 3000 nM | 920 nM | > 3000 nM | > 3000 nM | > 750 µL/min/mg | 398 nM | > 3000 nM | > 3000 nM | > 750 µL/min/mg |  | Ki [14]: 2190 nM; Ki [15]: 631 nM |
| Cn1c(SCCCN2CC3CCN(c4ccccc4C(F)(F)F)C3C2)nnc1-c1cccnc1 (stereo in doubt; 52a) [listing 2 of 2 here] |  |  |  |  |  |  |  |  |  |  | Activity [16]: inactive; Activity [17]: inactive |
| Cn1c(SCCCN2CC3CCN(c4ccc(C(F)(F)F)cc4)C3C2)nnc1-c1cc[nH]c(=O)c1 (stereo in doubt; 55a) |  |  |  |  |  | 2000 nM |  |  |  | 15.8 nM |  |
| Cn1c(SCCCN2CC3CCN(c4ccc(C(F)(F)F)cc4)C3C2)nnc1-c1cc[nH]c(=O)c1 (stereo in doubt; 55b) |  |  |  |  |  |  |  |  |  |  | Selectivity ratio (Homo sapiens): > 250; Activity [16]: inactive |
| Cn1c(SCCCN2CC3CCN(c4ccc(C(F)(F)F)cc4)C3C2)nnc1-c1ccc(=O)n(C)c1 (stereo in doubt; 57a) |  |  |  |  | 152 µL/min/mg |  |  |  | 23 µL/min/mg |  | permeability ([10]; Caco-2): 3.9 ×10⁻⁶ cm/s |
| Cn1c(SCCCN2CC3CCN(c4ccc(C(F)(F)F)cc4)C3C2)nnc1N1CCOCC1 (stereo in doubt; 61b) |  |  |  |  |  | 200 nM |  |  |  | 2 nM |  |
